In publication PMC4621507, “Characterization of 2,4-Diamino-6-oxo-1,6-dihydropyrimidin-5-yl Ureido Based Inhibitors of Trypanosoma brucei FolD and Testing for Antiparasitic Activity” (Journal of Medicinal Chemistry, 2015):
“And” between values parts separate entries of the source, which are not always exact repeats. Equal values may be shown once.

Key:
TbFolD = assay: FolD dehydrogenase enzyme inhibition assay; type: biochemical, Trypanosoma brucei; conditions: for FolD inhibition IC50 / FolD inhibition Ki: recombinant TbFolD, dehydrogenase activity; for FolD inhibition IC50: 35 μM mTHF, 1 mM NADP+, 27 °C, pH 7.3; for FolD inhibition Ki: data fitted to a competitive model; for increase of the inhibitory potency compared to that of compound 2: TbFolD, from Ki
Description: The dehydrogenase activity of FolD was measured spectrophotometrically, using a Beckman DU-640 spectrophotometer, following the formation of 5,10-CH=THF from 5,10-CH2-THF. 5,10-CH2-THF dehydrogenase assays were carried out in a 0.5 mL volume at 27 °C and contained 25 mM MOPS, pH 7.3, 30 mM 2-mercaptoethanol, 35 μM mTHF, and 1 mM NADP^+. The Km values of substrate and cofactor having been previously elucidated as approximately 35 and 70 μM. The reaction was initiated by the addition of NADP^+ and incubated for 5 min then stopped by the addition of an equal volume of 1 M HCl and the 5,10-CH=THF produced quantified at 350 nm, using an extinction coefficient of 24.9 mM^–1 cm^–1. The enzyme activity was expressed as μ moles 5,10-CH=THF produced per minute. Enzyme inhibition was measured using the dehydrogenase assay, with stocks of compounds dissolved in DMSO (10 mM). The concentration of compound in the first test was 0–50–100 μM. Data from inhibition assays were fitted to a competitive model by linear regression using Origin (OriginLab Corporation). […]
with 50 mM bicine, 250 mM NaCl, 0.5 mM DTT, 10 % glycerol pH 8.0. The typical yield of protein was approximately 7 mg/L of cell culture. The addition of 10% glycerol in all buffers was required to prevent loss of activity when the samples were flashyfrozen.
The dehydrogenase activity of FolD was measured spectrophotometrically, using a Beckman DUy 640 spectrophotometer, following either the formation of 5,10yCH=THF from 5,10yCH2yTHF (DH activity). 5,10yCH2yTHF dehydrogenase assays were carried out in a 0.5 mL volume at 27 °C and contained 25 mM MOPS, pH 7.3, 30 mM 2ymercaptoethanol 35 µM mTHF, 1 mM NADP+. The reaction was initiated by addition of NADP+ and incubated for 5 minutes then stopped by the addition of an equal volume of 1 M HCl and the 5,10yCH=THF produced quantified at 350 nm, using a extinction coefficient of 24.9 mM−1 cm−1. DH activity was expressed as µ moles 5,10y CH=THF produced per minute. Enzyme inhibition was measured using the dehydrogenase assay, with stocks of compounds dissolved in DMSO (10 mM). The concentration of compound in the first test was 0y50y100 µM. Data from inhibition assays were fitted to competitive model by linear […]
The bloodstreamyform T. brucei brucei strain 427 was grown in HMIy9 medium – 17.66 mg/mL IMDM (Gibco), 3.020 mg/mL sodium bicarbonate (SigmayAldrich), 0.136 mg/mL hypoxanthine (SigmayAldrich), 0.039 mg/mL thymidine (SigmayAldrich) and 0.028 mg/mL bathocuproine sulfonic acid (SigmayAldrich) y supplemented with 10% heatyinactivated fetal bovine serum (FBS) (BioWhittaker), 1.5 mM Lycysteine hydrochloride monohydrate (Merck), 0.2 mM βy mercaptoethanol (SigmayAldrich), 100 U/mL penicillin and 100 U/mL streptomycin (BioWhittaker) at 37 °C under a humidified 5% CO2 atmosphere. Cultures were grown in T25 or T75 vented cap culture flasks (Sarstedt) and subycultured every 2y3 days by 100 to 1000yfold dilution, respectively.
Parasites were counted directly using a Neubauer chamber (Marienfeld) and diluted appropriately in […]
In vitro growth inhibition assays

[1] = Solubility in organic solvents (crystallization trials); type: physicochemical; conditions: room temperature, with the exception of DMSO
Source text: We therefore tried to grow crystals from DMSO (in different conditions) and from mixtures of DMSO/CH3CN. Eventually, crystallization by slow evaporation (16 days) of a solution of 3 in reagent-grade DMSO (Sigma-Aldrich) at room temperature produced small plates suitable for the determination of the molecular connectivity. After testing several samples, a specimen (0.25 × 0.20 × 0.05 mm^3) grown at the liquor/air interface was selected for the crystallographic analysis. The specimen manifested a significant pleochroism (colorless to violet) under polarized light. It was mounted on the top of a glass capillary fiber in dense perfluorinated oil. The X-ray data collection was performed at room temperature on a 3-circle Bruker SMART APEX goniometer equipped with a CCD APEX-II detector, using graphite-monochromated Mo Kα radiation (λ = 0.71073 Å). A total of 26180 reflections (8144 unique) were recorded up to (sin ϑ/λ)MAX = 0.5017 Å^–1. A high exposure time (120 s/frame) was employed due to the small dimensions of the sample and its very low scattering power.

[2] = test system: THP1 differentiated macrophages; assay: Cytotoxicity, colorimetric MTT assay; type: cell-based; conditions: human THP1 differentiated macrophages, 72 h, read-out: THP1 in vitro growth inhibition IC50
Description: The cytotoxicity of the compounds under study was assessed by a colorimetric MTT assay.[26],[27] THP1 differentiated macrophages were seeded at a density of 10^5 cells/well in 96-well plates and allowed to adhere overnight. Cells were incubated with the compound concentration range for 72 h at 37 °C. At the end of the incubation period, 200 μL of 0.5 mg/mL MTT reagent (thiazolyl blue tetrazolium bromide, Sigma) solution was added to each well. The plates were further incubated for 4 h at 37 °C in the dark. The culture medium was subsequently discarded, and 200 μL of isopropanol was added to dissolve the dark-blue formazan crystals. Cell viability was quantified spectrophotometrically by measuring the absorbance of the formazan product at wavelength 570 nm and the background at 660 nm with a microplate reader (Synergy 2, Biotek, USA). The data are expressed as the percentages of viable cells compared to the survival of a control group (untreated cells). […]
additional 4 h and then the fluorescence read in a microplate reader (Sinergy 2, BioTek) using an […]
calculated by linear regression.
The cytotoxicity of the compounds under study was assessed by a colorimetric MTT assay. […]
added to dissolve the darkyblue formazan crystals. Cell viability was quantified
spectrophotometrically by measuring the absorbance of the formazan product at the wavelength of […]

human FolD = molecular target: human FolD; set-up: method as in PMID 22108435, PMID 23050773; conditions: competitive inhibitor; cited from earlier work
[3] = molecular target: Pseudomonas aeruginosa FolD; set-up: method as in PMID 22108435, PMID 23050773; conditions: competitive inhibitor; cited from earlier work
L. major FolD = molecular target: L. major FolD; set-up: method as in PMID 22108435, PMID 23050773; conditions: competitive inhibitor; cited from earlier work
[4] = molecular target: Trypanosoma brucei N5,N10-methylenetetrahydrofolate dehydrogenase/cyclohydrolase (FolD) (Trypanosoma brucei (Lister 927 strain)); assay: SEC; size exclusion chromatography (gel filtration) of recombinant TbFolD in solution; conditions not given in the main text

Compound | FolD inhibition IC50 (TbFolD) | FolD inhibition Ki (TbFolD) | other results
Nc1nc(N)c(NC(=O)Nc2ccc(C(=O)NCCCC(=O)O)cc2)c(=O)[nH]1 [Compound 20, 4-(4-(3-(2,4-Diamino-6-hydroxypyrimidin-5-yl)ureido)benzamido)butanoic Acid] | 213 ± 18 µM | 168 ± 8.5 µM | –
C[C@H](NC(=O)c1ccc(NC(=O)Nc2c(N)nc(N)[nH]c2=O)cc1)C(=O)O [Compound 17, (S)-2-(4-(3-(2,4-Diamino-6-hydroxypyrimidin-5-yl)ureido)benzamido)propanoic Acid] | 6.3 ± 0.8 µM | 3.2 ± 0.3 µM | –
Nc1nc(N)c(NC(=O)Nc2ccc(C(=O)N[C@@H](Cc3ccccc3)C(=O)O)cc2)c(=O)[nH]1 [Compound 18, (S)-2-(4-(3-(2,4-Diamino-6-hydroxypyrimidin-5-yl)ureido)benzamido)-3-phenylpropanoic Acid] | 1.1 ± 0.25 µM | 0.54 µM and 0.54 ± 0.08 µM | increase of the inhibitory potency compared to that of compound 2 (TbFolD): 2 fold
CCOC(=O)c1ccc(NC(=O)Nc2c(N)nc(N)[nH]c2=O)cc1 [Compound 3, Ethyl 4-(3-(2,4-diamino-6-oxo-1,6-dihydropyrimidin-5-yl)ureido)benzoate] | – | – | solubility in most organic solvents [1]: poorly soluble
(S)-2-(4-(3-(2,4-diamino-6-hydroxypyrimidin-5-yl)ureido)benzamido)hexanedioic Acid [Compound 16] | 1.0 ± 0.3 µM | 0.48 µM and 0.48 ± 0.7 µM | increase of the inhibitory potency compared to that of compound 2 (TbFolD): 2 fold; IC50 [2]: 90 ± 16 µM
Nc1nc(N)c(NC(=O)Nc2ccc(C(=O)N[C@@H](CCC(=O)O)C(=O)O)cc2)c(=O)[nH]1 [Compound 2, (S)-2-(4-(3-(2,4-Diamino-6-oxo-1,6-dihydropyrimidin-5-yl)ureido)benzamido)pentanedioic Acid] | 2.2 µM and 2.2 ± 0.5 µM | 1.1 µM and 1.1 ± 0.8 µM | –
Nc1nc2c(c(=O)[nH]1)N1C(=O)N(c3ccc(C(=O)NC(CCC(=O)O)C(=O)O)cc3)CC1CN2 (stereo not shown) [Compound 21, reference compound] | 20 ± 1.2 µM | 8.5 µM and 8.5 ± 0.5 µM | Ki human FolD (human FolD): 0.029 µM; Ki Pseudomonas aeruginosa FolD [3]: 0.03 µM; Ki L. major FolD (L. major FolD): 0.105 µM
Trypanosoma brucei N5,N10-methylenetetrahydrofolate dehydrogenase/cyclohydrolase (FolD) (enzyme) | – | – | stoichiometry N [4]: 2
Nc1nc(N)c(NC(=O)Nc2ccc(C(=O)N[C@@H](Cc3ccc(O)cc3)C(=O)O)cc2)c(=O)[nH]1 [Compound 19, (S)-2-(4-(3-(2,4-Diamino-6-hydroxypyrimidin-5-yl)ureido)benzamido)-3-(4-hydroxyphenyl)propanoic Acid] | 9.3 ± 0.9 µM | 7.3 ± 0.7 µM | –
